Values of other authors, collected in patent publication US6884429B2, “Medical devices incorporating deuterated rapamycin for controlled delivery thereof” (Isotechnika International Inc., priority 1997, dated 2005).

Conditions: plasma and low-, and neuteral -pH buffers at 37° C.

CO[C@H]1C[C@@H]2CC[C@@H](C)[C@@](O)(O2)C(=O)C(=O)N2CCCC[C@H]2C(=O)O[C@H]([C@H](C)C[C@@H]2CC[C@@H](O)[C@H](OC)C2)CC(=O)[C@H](C)/C=C(\C)[C@@H](O)[C@@H](OC)C(=O)[C@H](C)C[C@H](C)/C=C/C=C/C=C/1C [Rapamycin]
half-life of degradation in solution: < 10 h
